Tested on: BT-474 cells
Assay: Antiproliferative assay
Format: cell-based
Conditions: Homo sapiens, BT-474, 72 h, read-out: Antiproliferative activity IC50, BT-474; SD

- IC50: 25 ± 4 nM
Compound: CS(=O)(=O)CCNCc1ccc(-c2ccc3ncnc(Nc4ccc(OCc5cccc(F)c5)c(Cl)c4)c3c2)o1 [lapatinib]

Source: PMC3998834 (Biopolymers, 2014)
